According to ChEMBL document CHEMBL1201862, “PubChem BioAssay data set” (2004):
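Dose response: 5 concentrations. Exposure: 48 h. Format: 96-well plates. Endpoint: linear interpolation; highest concentration if not reached. GI50 = concentration required for 50% inhibition of growth.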 Activity calls are given as the source filed them. No stated cut-off is given here; in the data, active = GI50 up to about 1.1 µM and inactive = higher.

Columns and labels:
Experiment in all cases: DTP human tumour cell line panel, 48 h
BT-549 = test system: BT-549
DMS-114 = test system: DMS-114
DLD-1 = test system: DLD-1
XF498 = test system: XF498
SNB-78 = test system: SNB-78
HOP-18 = test system: HOP-18
M19-MEL = test system: M19-MEL
DMS-273 = test system: DMS-273
RXF 631 = test system: RXF 631

Structure (SMILES) | GI50 (BT-549) | GI50 (DMS-114) | GI50 (DLD-1) | GI50 (SNB-78) | GI50 (M19-MEL) | further results
C[NH+]1[C@@H](Cc2ccccc2)C(=O)O[B-]1(F)c1ccccc1 (stereo not given in full) | > 100 µM (inactive) |  |  |  |  | 
CCOC(=O)c1c(N2CCCC2)ncn(-c2ccccc2)c1=S | > 100 µM (inactive) |  |  |  |  | 
C=C1CCc2occ(C)c2C2C1C1=C(CC(C)C1=O)C1OC12C (stereo not given) |  | 99.1 µM (inactive) | > 100 µM (inactive) | > 100 µM (inactive) | > 100 µM (inactive) | GI50 (XF498): 91.6 µM (inactive); GI50 (HOP-18): 2.26 µM (inactive)
CCN(CCO)CC1COc2ccccc2O1 (stereo not given) | > 100 µM (inactive) |  |  |  |  | 
CN(C)c1nc(N(C)c2ccccc2)[s+]s1 |  | 30.8 µM (inactive) | 92.3 µM (inactive) | > 100 µM (inactive) | 18.9 µM (inactive) | GI50 (DMS-273): 47.2 µM (inactive); GI50 (XF498): 20 µM (inactive); GI50 (HOP-18): > 100 µM (inactive)
Cc1ccc(C[N+](C)(C)N)cc1C | > 10 µM (inactive) |  |  |  |  | 
COc1cc(C2C3=C(COC3=O)Oc3cc4c(cc32)OCO4)ccc1O (stereo not given) | 1.1 µM (active) |  |  |  |  | 
Cc1ccc(N(C)S(=O)(=O)c2ccccc2)cc1 | 61 µM (inactive) |  |  |  |  | 
NC(=S)Nc1nc(=S)[nH]c2c1SC1=N/C(=C\c3ccco3)C(=O)N12 | > 100 µM (inactive) |  |  |  |  | 
Cc1nc(C(N)=S)sc1C(=O)C/C(=N/N)C(=O)Nc1cccc(Cl)c1C | > 100 µM (inactive) |  |  |  |  | 
CC(=O)N1C(CCc2ccccc2)CC(C)(C=O)C1Cc1ccc(O[Si](C(C)C)(C(C)C)C(C)C)cc1 (stereo not given) | 15.6 µM (inactive) |  |  |  |  | 
CCCCCCCC(=O)OC[n+]1cccc(-c2c(COC(=O)NC(C)C)c(COC(=O)NC(C)C)c3n2CCC3)c1 | > 84.5 µM (inactive) |  |  |  |  | 
Cc1c(C)c2c(c(N)c1C#N)C(=O)N(NC(=S)Nc1ccccc1)C2=O | > 100 µM (inactive) |  |  |  |  | 
CCN(CCCOc1ccccc1)CCN(CC)CCCOc1ccccc1 | 14.3 µM (inactive) |  |  |  |  | 
CSc1ccc(OCC2OC2O)cc1 (stereo not given) |  | 12.9 µM (inactive) | 45.7 µM (inactive) | > 100 µM (inactive) | 37.7 µM (inactive) | GI50 (DMS-273): 34.2 µM (inactive); GI50 (XF498): 30.5 µM (inactive); GI50 (HOP-18): > 100 µM (inactive)
C(=N\OCc1ccccc1)/c1ncccc1C1OCCO1 |  | > 100 µM (inactive) | > 100 µM (inactive) | > 100 µM (inactive) | > 100 µM (inactive) | GI50 (DMS-273): > 100 µM (inactive); GI50 (HOP-18): > 100 µM (inactive)
Clc1ccc(SCCSCCCCCCCCCCSCCSc2ccc(Cl)cc2)cc1 |  | > 100 µM (inactive) | > 100 µM (inactive) | > 100 µM (inactive) |  | GI50 (DMS-273): > 100 µM (inactive); GI50 (RXF 631): > 100 µM (inactive); GI50 (HOP-18): > 100 µM (inactive)
O[C@]12C=C(c3nccc4c3[nH]c3ccccc34)[C@@H]3CCN(CCCC/C=C\CC1)C[C@@]31CC3/C=C\CCCCN3[C@H]12 (stereo not given in full) | 0.804 µM (active) |  |  |  |  | 
CC(C)(C)c1ccc(O)c(CN(Cc2cc(C(C)(C)C)ccc2O)c2ccccc2)c1 | 21 µM (inactive) |  |  |  |  | 
Oc1ccc2ccccc2c1/N=N/c1cc(Cl)ccc1Cl | > 50 µM (inactive) |  |  |  |  | 
C[N+]1(C)C2Cc3ccccc3C1Cc1ccccc12 | > 100 µM (inactive) |  |  |  |  | 
Cc1ccc([N+](=O)[O-])cc1NC(=O)C(=O)Cc1cc(=O)oc2cc(O)ccc12 |  | 18.5 µM (inactive) | > 100 µM (inactive) | > 100 µM (inactive) | > 100 µM (inactive) | GI50 (XF498): > 100 µM (inactive); GI50 (HOP-18): > 100 µM (inactive)
CCCC(=O)N1CCN(c2ccc3c(c2)OC(C)O3)CC1 (stereo not given) | > 100 µM (inactive) |  |  |  |  | 
COc1cc2c(c(OC)c1OC)-c1ccc(SC)c(=O)cc1[C@@H](NC(=O)c1ccc(C#N)cc1)CC2 |  | < 0.01 µM (active) | < 0.01 µM (active) | < 0.01 µM (active) | < 0.01 µM (active) | GI50 (DMS-273): < 0.01 µM (active); GI50 (XF498): < 0.01 µM (active)
NC(=O)c1csc(C2OC(CO)C(O)C2O)n1 (stereo not given) | 885 µM (inactive) | 61.1 µM (inactive) | 8.57 µM (inactive) | 92.7 µM (inactive) | 29 µM (inactive) | GI50 (DMS-273): 30.8 µM (inactive); GI50 (XF498): 67.8 µM (inactive); GI50 (HOP-18): 1170 µM (inactive)
CCC12C=CCN3CC[C@]4(C(=C(C(=O)OC)[C@@H]1Nc1ncnc5c1ncn5C1OC(COC(C)=O)C(OC(C)=O)C1OC(C)=O)Nc1ccccc14)C32 (stereo not given in full) |  | 1.91 µM (inactive) | 2.69 µM (inactive) | 3.15 µM (inactive) | 1.99 µM (inactive) | GI50 (DMS-273): 2.75 µM (inactive); GI50 (XF498): 3 µM (inactive); GI50 (HOP-18): 7.64 µM (inactive)
Cc1ccc(/N=N/c2ccc(O)c(CN(C)C)c2)cc1C | 25.6 µM (inactive) |  |  |  |  | 
Cl[Si]1(Cl)Oc2ccccc2O[Si](Cl)(Cl)Oc2ccccc2O1 |  | 1.88 µM (inactive) | 34 µM (inactive) |  | 12 µM (inactive) | GI50 (DMS-273): 7.38 µM (inactive); GI50 (RXF 631): 7.78 µM (inactive); GI50 (XF498): 15.2 µM (inactive)
Cc1ccc(/C=N/n2c(=O)[nH]c3ccccc3c2=O)cc1 | > 100 µM (inactive) |  |  |  |  | 
Clc1ccc(C(c2ccc(Cl)cc2)N2CCNCC2)cc1 | 16.9 µM (inactive) |  |  |  |  | 
